According to PubChem BioAssay AID588709 (The Scripps Research Institute Molecular Screening Center, 2011):
“And” between values parts separate entries of the source, which are not always exact repeats. Identical values can stand only once. The source made the active and inactive calls. How the calls were made is not given here.

Test system: HEK293 cytotoxicity, ATP luminescence
Experiment: HEK cell viability loss – luminescence, HEK cells, counter-screen for IDE inhibitor project, dose response (AID 588709)

Compound	IC50
O=C(CSc1nnc(-c2cccc(Cl)c2)n1Cc1ccco1)Nc1ccccc1C(F)(F)F	30.9 µM (inactive)
O=C(CSc1nnc(-c2cccc(Cl)c2)n1Cc1ccco1)c1ccc2ccccc2c1	30.7 µM (inactive)
O=C(CSc1nnc(-c2cccc(Cl)c2)n1Cc1ccco1)Nc1ccc2c(c1)OCCO2	29.7 µM (inactive)
Cc1c(CCC(=O)NCCCn2ccnc2)c(=O)oc2cc3oc4c(c3cc12)CCCC4	21.4 µM (inactive)
O=C(Nc1cccc(C(F)(F)F)c1)c1csc(Cc2cccc(C(F)(F)F)c2)n1	29.5 µM (inactive)
COc1ccc(-c2nc(C(=O)Nc3cccc(C(F)(F)F)c3)cs2)cc1	67.8 µM (inactive)
O=C(Nc1ccc2oc(-c3cccnc3)nc2c1)c1ccc2c(c1)OCCO2	> 71.5 µM (inactive)
Cn1c(=O)c(C(=O)CN2CCCc3ccccc32)c(N)n(Cc2ccccc2)c1=O	30.1 µM (inactive)
Clc1cccc(-c2nnc(SCc3nc4ccccc4[nH]3)n2Cc2ccco2)c1	23.3 µM (inactive)
COc1cccc(-c2nnc(SCc3nc4ccccc4[nH]3)n2Cc2ccco2)c1	36.5 µM (inactive)
Cn1c(SCc2nc3ccccc3[nH]2)nnc1-c1cccc(Cl)c1	> 71.5 µM (inactive)
Cc1ccc(C)c(N2C(=N)S/C(=C\c3ccc(-c4ccccc4C(=O)O)o3)C2=O)c1	> 71.5 µM (inactive)
COc1ccc(NC(=O)CSc2nnc(CN3CCOCC3)n2C)cc1Cl	> 71.5 µM (inactive)
Cc1nc(-c2cccnc2)sc1C(=O)Nc1cccc(C(F)(F)F)c1	15.8 µM (inactive)
Clc1cccc(-c2nnc(SCc3nc4ccccc4[nH]3)n2-c2ccccc2)c1	31.2 µM (inactive)
O=C(Nc1cccc(C(F)(F)F)c1)c1csc(-c2ccncc2)n1	24.1 µM (inactive)

Compound	IC50
COc1cc(/C=C2\SC(=S)N(NC(C)=O)C2=O)ccc1OC(=O)c1ccco1	> 71.5 µM (inactive)
O=C(Nc1cccc(C(F)(F)F)c1)c1csc(-c2ccccc2)n1	33.3 µM (inactive)
O=c1c2ccccc2sn1-c1cc(S(=O)(=O)N2CCOCC2)ccc1N1CCOCC1	9.61 µM
Cc1ccc(NC(=O)CSc2nnc(-c3cccc(Cl)c3)n2Cc2ccco2)c(C)c1	35.6 µM (inactive)
COc1ccc(C(=O)N2CCN(C(=O)C3COc4ccccc4O3)CC2)cc1OC (stereo unspecified)	> 71.5 µM (inactive)
O=C(Nc1cc(C(F)(F)F)cc(C(F)(F)F)c1)c1csc(-c2ccncc2)n1	> 71.5 µM (inactive)
CC(Sc1nnc(-c2cccnc2)n1-c1ccccc1F)C(=O)N1CCCc2ccccc21 (stereo unspecified)	32.1 µM (inactive)
CCOc1ccc2[nH]c3c(N4CCN(C(=O)c5ccco5)CC4)ncnc3c2c1	21.1 µM (inactive)
CCN(CC)c1ccc(/C=C2\C(=N)N3N=C(CC(=O)N4CCOCC4)SC3=NC2=O)cc1	> 71.5 µM (inactive)
O=C(CSc1nnc(-c2cccc(Cl)c2)n1Cc1ccco1)Nc1ccc2cn[nH]c2c1	> 71.5 µM (inactive)
Cc1cccc(-c2nnc(SCc3nc4ccccc4[nH]3)n2Cc2ccco2)c1	34.8 µM (inactive) and 32.7 µM (inactive)
O=C(Nc1cccc(C(F)(F)F)c1)c1csc(-c2cccc(C(F)(F)F)c2)n1	55.9 µM (inactive)
Nc1c(C(=O)Nc2nccs2)sc2nc(-c3cccs3)cc(C(F)(F)F)c12	9.06 µM
Cc1ccc(-c2nc(C(=O)Nc3cccc(C(F)(F)F)c3)cs2)cc1	36.1 µM (inactive)
O=C(C1CC1)N1CCN(c2ccnc3cc(Cl)ccc23)CC1	> 71.5 µM (inactive)
